Assay results as given in ChEMBL document CHEMBL1153186, “In vitro antitubercular and antimicrobial activities of 1-substituted quinoxaline-2,3(1H,4H)-diones” (2010).

Legend:
Format in all cases: functional
Conditions in all cases: read-out: IZ
[1] = tested on: Staphylococcus aureus; assay: Antibacterial activity against Staphylococcus aureus at 100 ug/disk by agar plate disk diffusion method
[2] = tested on: Escherichia coli; assay: Antibacterial activity against Escherichia coli at 100 ug/disk by agar plate disk diffusion method
[3] = tested on: Proteus vulgaris; assay: Antibacterial activity against Proteus vulgaris at 100 ug/disk by agar plate disk diffusion method
[4] = tested on: Pseudomonas aeruginosa; assay: Antibacterial activity against Pseudomonas aeruginosa at 100 ug/disk by agar plate disk diffusion method
[5] = tested on: Aspergillus niger; assay: Antifungal activity against Aspergillus niger at 100 ug/disk by agar plate disk diffusion method
[6] = tested on: Candida albicans; assay: Antifungal activity against Candida albicans at 100 ug/disk by agar plate disk diffusion method
[7] = tested on: Aspergillus niger; assay: Antifungal activity against Aspergillus niger at 50 ug/disk by agar plate disk diffusion method
[8] = tested on: Candida albicans; assay: Antifungal activity against Candida albicans at 50 ug/disk by agar plate disk diffusion method
[9] = tested on: Staphylococcus aureus; assay: Antibacterial activity against Staphylococcus aureus at 50 ug/disk by agar plate disk diffusion method
[10] = tested on: Escherichia coli; assay: Antibacterial activity against Escherichia coli at 50 ug/disk by agar plate disk diffusion method
[11] = tested on: Proteus vulgaris; assay: Antibacterial activity against Proteus vulgaris at 50 ug/disk by agar plate disk diffusion method
[12] = tested on: Pseudomonas aeruginosa; assay: Antibacterial activity against Pseudomonas aeruginosa at 50 ug/disk by agar plate disk diffusion method

`CC(=O)n1c(=O)c(=O)[nH]c2ccccc21` showed a zone of inhibition at 100 µg/disc [1] of 20 mm, a zone of inhibition at 100 µg/disc [2] of 24 mm and a zone of inhibition at 100 µg/disc [3] of 26 mm. For the same molecule, the zone of inhibition at 100 µg/disc [4] was 29 mm, the zone of inhibition at 100 µg/disc [5] was 20 mm and the zone of inhibition at 100 µg/disc [6] was 0 mm.
Molecule `O=c1[nH]c2ccccc2n(Cn2cnc3ccccc32)c1=O` has a zone of inhibition at 100 µg/disc [1] of 36 mm, a zone of inhibition at 100 µg/disc [2] of 33 mm and a zone of inhibition at 100 µg/disc [3] of 32 mm. For the same molecule, the zone of inhibition at 100 µg/disc [4] was 35 mm, the zone of inhibition at 100 µg/disc [5] was 25 mm and the zone of inhibition at 100 µg/disc [6] was 18 mm.
In the case of `COc1cc(O)ccc1/C=C/C(=O)n1c(=O)c(=O)[nH]c2ccccc21`, the zone of inhibition at 100 µg/disc [1] is reported as 16 mm, the zone of inhibition at 100 µg/disc [2] is reported as 16 mm and the zone of inhibition at 100 µg/disc [3] is reported as 18 mm. For the same molecule, the zone of inhibition at 100 µg/disc [4] was 18 mm, the zone of inhibition at 100 µg/disc [5] was 16 mm and the zone of inhibition at 100 µg/disc [6] was 10 mm.
Molecule `O=c1[nH]c2ccccc2n(Cn2nnc3ccccc32)c1=O` has a zone of inhibition at 100 µg/disc [1] of 29 mm, a zone of inhibition at 100 µg/disc [2] of 39 mm and a zone of inhibition at 100 µg/disc [3] of 34 mm. For the same molecule, the zone of inhibition at 100 µg/disc [4] was 39 mm, the zone of inhibition at 100 µg/disc [5] was 28 mm and the zone of inhibition at 100 µg/disc [6] was 20 mm.
`O=c1[nH]c2ccccc2n(CN(c2ccccc2)c2ccccc2)c1=O` gave a zone of inhibition at 100 µg/disc [1] of 26 mm, a zone of inhibition at 100 µg/disc [2] of 30 mm and a zone of inhibition at 100 µg/disc [3] of 30 mm. It also gave a zone of inhibition at 100 µg/disc [4] of 35 mm, a zone of inhibition at 100 µg/disc [5] of 28 mm and a zone of inhibition at 100 µg/disc [6] of 20 mm.
`O=C1c2ccccc2C(=O)N1Cn1c(=O)c(=O)[nH]c2ccccc21` was tested, and the zone of inhibition at 100 µg/disc [1] was 29 mm, the zone of inhibition at 100 µg/disc [2] was 30 mm and the zone of inhibition at 100 µg/disc [3] was 31 mm. For the same molecule, the zone of inhibition at 100 µg/disc [4] was 34 mm, the zone of inhibition at 100 µg/disc [5] was 23 mm and the zone of inhibition at 100 µg/disc [6] was 23 mm.
For `O=C(/C=C/c1ccccc1)n1c(=O)c(=O)[nH]c2ccccc21`, the zone of inhibition at 100 µg/disc [1] was 20 mm, the zone of inhibition at 100 µg/disc [2] was 26 mm and the zone of inhibition at 100 µg/disc [3] was 30 mm. The zone of inhibition at 100 µg/disc [4] was 29 mm, the zone of inhibition at 100 µg/disc [5] was 24 mm and the zone of inhibition at 100 µg/disc [6] was 18 mm.
`CN(C)c1ccc(/C=C/C(=O)n2c(=O)c(=O)[nH]c3ccccc32)cc1` showed a zone of inhibition at 100 µg/disc [1] of 18 mm, a zone of inhibition at 100 µg/disc [2] of 33 mm and a zone of inhibition at 100 µg/disc [3] of 33 mm. It also gave a zone of inhibition at 100 µg/disc [4] of 31 mm, a zone of inhibition at 100 µg/disc [5] of 0 mm and a zone of inhibition at 100 µg/disc [6] of 0 mm.
For `CC1=NNC(=O)C1Cn1c(=O)c(=O)[nH]c2ccccc21` (stereo not given), the zone of inhibition at 100 µg/disc [1] was 33 mm, the zone of inhibition at 100 µg/disc [2] was 37 mm and the zone of inhibition at 100 µg/disc [3] was 32 mm. For the same molecule, the zone of inhibition at 100 µg/disc [4] was 39 mm, the zone of inhibition at 100 µg/disc [5] was 23 mm and the zone of inhibition at 100 µg/disc [6] was 21 mm.
`Clc1ccccc1C(c1ccccc1)(c1ccccc1)n1ccnc1` [CLOTRIMAZOLE] gave a zone of inhibition at 50 µg/disc [7] of 21 mm and a zone of inhibition at 50 µg/disc [8] of 13 mm.
Molecule `CCn1cc(C(=O)O)c(=O)c2ccc(C)nc21` [NALIDIXIC ACID] has a zone of inhibition at 50 µg/disc [9] of 24 mm, a zone of inhibition at 50 µg/disc [10] of 25 mm and a zone of inhibition at 50 µg/disc [11] of 34 mm. The zone of inhibition at 50 µg/disc [12] was 22 mm.
